{"source": "patent US20060135906A1", "about": "“Iontophoretic device and method for administering immune response-enhancing agents and compositions” (priority 2004, published 2006)", "test_system": "57BL/6 mice", "experiment": "Antibody titers (IgG1, IgG2) in mice given Mtb72F vaccine plus MPL adjuvant", "conditions": "for antibody titer of IgG1 / antibody titer of IgG2: Mtb72F 10 μg injected, compared with no MPL administered", "key": {"[1]": {"conditions": "day 43, MPL administered iontophoretically (transcutaneous)"}, "[2]": {"conditions": "day 43, MPL by intracutaneous injection (MPL-AF or MPL-SE, 20 μg)"}}, "data": [{"substance": "monophosphoryl lipid A [MPL]", "values": [{"measurement": "immune response-enhancing effects", "setting": "MPL administered iontophoretically, compared with intracutaneous injection", "value": "significant immune response-enhancing effects equivalent to those obtained by intracutaneous injection"}, {"measurement": "antibody titer results, iontophoretic delivery compared with intracutaneous injection", "setting": "day 43, IgG1 and IgG2", "value": "nearly identical"}, {"measurement": "antibody titer of IgG1", "setting": "[1]", "value": "significantly higher"}, {"measurement": "antibody titer of IgG2", "setting": "[1]", "value": "significantly higher"}, {"measurement": "antibody titer of IgG1", "setting": "[2]", "value": "significantly higher"}, {"measurement": "antibody titer of IgG2", "setting": "[2]", "value": "significantly higher"}]}]}
